Our source for the Activity values is ChEMBL document CHEMBL5325441, “Current and emerging therapies for Achondroplasia: The dawn of precision medicine” (2023).

Activity calls are given as the source filed them. No cut-off for these calls is given here.

In experiment [1] the test system is Bone. Nature of the experiment: Induction of bone regrowth in achondroplasia FVB mouse model assessed as improvement in dwarfism by measuring tibia size at 203 microg/kg, sc administered as continuous infusion for 35 days. It counts as functional. To be noted: dose 203 µg/kg, time 35 day.
Experiment [2] relates to Bone. Kind of experiment: Induction of bone regrowth in achondroplasia FVB mouse model assessed as improvement in dwarfism by measuring spine size at 203 microg/kg, sc administered as continuous infusion for 35 days. It counts as functional. The note with it: dose 203 µg/kg, time 35 day.
A short description of experiment [3]: Induction of bone regrowth in achondroplasia Cynomolgus monkey model assessed as improvement in dwarfism by measuring ulna size at 203 microg/kg, sc qd administered for 35 days. The class given is functional, Macaca fascicularis. To be noted: dose 203 µg/kg, time 35 day.
For experiment [4], the system named is Bone. Kind of experiment: Induction of bone regrowth in achondroplasia FVB mouse model assessed as improvement in dwarfism by measuring femur size at 203 microg/kg, sc qd administered for 35 days. The class given is functional. To be noted: dose 203 µg/kg, time 35 day.
The subject of experiment [5] is Bone. Nature of the experiment: Induction of bone regrowth in achondroplasia FVB mouse model assessed as improvement in dwarfism by measuring femur size at 203 microg/kg, sc administered as continuous infusion for 35 days. The class given is functional. The note with it: dose 203 µg/kg, time 35 day.
A short description of experiment [6]: Induction of bone regrowth in achondroplasia Cynomolgus monkey model assessed as improvement in dwarfism by measuring tail size at 203 microg/kg, sc qd administered for 35 days. The class given is functional, Macaca fascicularis. The note with it: dose 203 µg/kg, time 35 day.
For experiment [7], the system named is Bone. Nature of the experiment: Induction of bone regrowth in achondroplasia FVB mouse model assessed as improvement in dwarfism by measuring tibia size at 203 microg/kg, sc qd administered for 35 days. It counts as functional. To be noted: dose 203 µg/kg, time 35 day.
Experiment [8] has as its system Bone. Kind of experiment: Induction of bone regrowth in achondroplasia FVB mouse model assessed as improvement in dwarfism by measuring spine size at 203 microg/kg, sc qd administered for 35 days. The class given is functional. The note with it: dose 203 µg/kg, time 35 day.
In experiment [9] the test system is Bone. Kind of experiment: Induction of bone regrowth in achondroplasia C57BL/6 mouse model expressing FGFR3 Y367C mutant assessed as improvement in dwarfism by measuring ulna bone size at 0.5 mg/kg, sc qd administered for 15 days. The class given is functional. The note with it: time 15 day.
Experiment [10] concerns Bone. Kind of experiment: Induction of bone regrowth in achondroplasia C57BL/6 mouse model expressing FGFR3 Y367C mutant assessed as improvement in dwarfism by measuring anterior-posterior diameter of the skull size at 2 mg/kg, sc administered for 15 days. The class given is functional. The note with it: time 15 day.
The test system of experiment [11] is Bone. Kind of experiment: Induction of bone regrowth in achondroplasia C57BL/6 mouse model expressing FGFR3 Y367C mutant assessed as improvement in dwarfism by measuring humerus bone size at 2 mg/kg, sc administered for 15 days. The class given is functional. To be noted: time 15 day.
The subject of experiment [12] is Bone. Kind of experiment: Induction of bone regrowth in achondroplasia C57BL/6 mouse model expressing FGFR3 Y367C mutant assessed as improvement in dwarfism by measuring tibia bone size at 0.5 mg/kg, sc qd administered for 15 days. The class given is functional. To be noted: time 15 day.
The subject of experiment [13] is Bone. Nature of the experiment: Induction of bone regrowth in achondroplasia C57BL/6 mouse model expressing FGFR3 Y367C mutant assessed as improvement in dwarfism by measuring tail bone size at 2 mg/kg, sc administered for 15 days. The class given is functional. To be noted: time 15 day.
In experiment [14] the test system is Bone. Kind of experiment: Induction of bone regrowth in achondroplasia C57BL/6 mouse model expressing FGFR3 Y367C mutant assessed as improvement in dwarfism by measuring ulna bone size at 2 mg/kg, sc administered for 15 days. The class given is functional. To be noted: time 15 day.
Experiment [15] relates to Bone. Nature of the experiment: Induction of bone regrowth in achondroplasia C57BL/6 mouse model expressing FGFR3 Y367C mutant assessed as improvement in dwarfism by measuring femur bone size at 0.5 mg/kg, sc qd administered for 15 days. The class given is functional. The note with it: time 15 day.
The test system of experiment [16] is Bone. Nature of the experiment: Induction of bone regrowth in achondroplasia C57BL/6 mouse model expressing FGFR3 Y367C mutant assessed as improvement in dwarfism by measuring femur bone size at 2 mg/kg, sc administered for 15 days. The class given is functional. The note with it: time 15 day.
The test system of experiment [17] is Bone. Kind of experiment: Induction of bone regrowth in achondroplasia C57BL/6 mouse model expressing FGFR3 Y367C mutant assessed as improvement in dwarfism by measuring L4-L6 spine segment size at 2 mg/kg, sc administered for 15 days. It counts as functional. To be noted: time 15 day.
The subject of experiment [18] is Bone. Nature of the experiment: Induction of bone regrowth in achondroplasia C57BL/6 mouse model expressing FGFR3 Y367C mutant assessed as improvement in dwarfism by measuring foramen magnum bone size at 2 mg/kg, sc administered for 15 days. It counts as functional. The note with it: time 15 day.
Experiment [19] deals with Bone. Nature of the experiment: Induction of bone regrowth in achondroplasia C57BL/6 mouse model expressing FGFR3 Y367C mutant assessed as improvement in dwarfism by measuring humerus bone size at 0.5 mg/kg, sc qd administered for 15 days. It counts as functional. The note with it: time 15 day.
In experiment [20] the test system is Bone. Nature of the experiment: Induction of bone regrowth in achondroplasia C57BL/6 mouse model expressing FGFR3 Y367C mutant assessed as improvement in dwarfism by measuring tibia bone size at 2 mg/kg, sc administered for 15 days. To be noted: time 15 day. The class given is functional.
Experiment [21] has as its system Bone. Nature of the experiment: Induction of bone regrowth in achondroplasia mouse model assessed as improvement in dwarfism by measuring anterior-posterior diameter of the skull size at 800 microg/kg, sc qd administered for 21 days. It counts as functional, organism-based. The note with it: dose 800.0 µg/kg, time 21.0 day.
Experiment [22] deals with Bone. Nature of the experiment: Induction of bone regrowth in achondroplasia mouse model assessed as improvement in dwarfism by measuring tail bone size at 800 microg/kg, sc qd administered for 21 days. The note with it: dose 800.0 µg/kg, time 21.0 day. It counts as functional, organism-based.
Experiment [23] concerns Bone. Kind of experiment: Induction of bone regrowth in achondroplasia mouse model expressing FGFR3 Y367C mutant assessed as improvement in dwarfism by measuring L4-L6 spine segment size at 240 microg/kg, sc qd administered for 21 days. It counts as functional, organism-based. To be noted: dose 240.0 µg/kg, time 21.0 day.
Experiment [24] has as its system Bone. Nature of the experiment: Induction of bone regrowth in achondroplasia mouse model expressing FGFR3 Y367C mutant assessed as improvement in dwarfism by measuring anterior-posterior diameter of the skull size at 240 microg/kg, sc qd administered for 21 days. It counts as functional, organism-based. To be noted: dose 240.0 µg/kg, time 21.0 day.
The subject of experiment [25] is Bone. Nature of the experiment: Induction of bone regrowth in achondroplasia mouse model assessed as improvement in dwarfism by measuring femur bone size at 800 microg/kg, sc qd administered for 21 days. The class given is functional, organism-based. To be noted: dose 800.0 µg/kg, time 21.0 day.
Experiment [26] deals with Bone. Nature of the experiment: Induction of bone regrowth in achondroplasia mouse model expressing FGFR3 Y367C mutant assessed as improvement in dwarfism by measuring femur bone size at 240 microg/kg, sc qd administered for 21 days. To be noted: dose 240.0 µg/kg, time 21.0 day. It counts as functional, organism-based.
Experiment [27] relates to Bone. Nature of the experiment: Induction of bone regrowth in achondroplasia mouse model assessed as improvement in dwarfism by measuring tibia bone size at 800 microg/kg, sc qd administered for 21 days. It counts as functional, organism-based. To be noted: dose 800.0 µg/kg, time 21.0 day.
Experiment [28] concerns Bone. Nature of the experiment: Induction of bone regrowth in achondroplasia mouse model assessed as improvement in dwarfism by measuring L4-L6 spine segment size at 800 microg/kg, sc qd administered for 21 days. The note with it: dose 800.0 µg/kg, time 21.0 day. It counts as functional, organism-based.
The subject of experiment [29] is Bone. Nature of the experiment: Induction of bone regrowth in achondroplasia mouse model expressing FGFR3 Y367C mutant assessed as improvement in dwarfism by measuring tail bone size at 240 microg/kg, sc qd administered for 21 days. It counts as functional, organism-based. The note with it: dose 240.0 µg/kg, time 21.0 day.
The subject of experiment [30] is Bone. Kind of experiment: Induction of bone regrowth in achondroplasia mouse model expressing FGFR3 Y367C mutant assessed as improvement in dwarfism by measuring foramen magnum bone size at 240 microg/kg, sc qd administered for 21 days. It counts as functional, organism-based. To be noted: dose 240.0 µg/kg, time 21.0 day.
Experiment [31] relates to Bone. Kind of experiment: Induction of bone regrowth in achondroplasia mouse model assessed as improvement in dwarfism by measuring foramen magnum bone size at 800 microg/kg, sc qd administered for 21 days. To be noted: dose 800.0 µg/kg, time 21.0 day. It counts as functional, organism-based.
The subject of experiment [32] is Bone. Kind of experiment: Induction of bone regrowth in achondroplasia mouse model expressing FGFR3 Y367C mutant assessed as improvement in dwarfism by measuring tibia bone size at 240 microg/kg, sc qd administered for 21 days. The class given is functional, organism-based. The note with it: dose 240.0 µg/kg, time 21.0 day.

For the compound `CC[C@H](C)[C@@H]1NC(=O)[C@H](CCCNC(=N)N)NC(=O)[C@H](CC(=O)O)NC(=O)[C@H](CC(C)C)NC(=O)[C@H](CCCCN)NC(=O)[C@H](CC(C)C)NC(=O)CNC(=O)[C@H](Cc2ccccc2)NC(=O)[C@@H](NC(=O)CNC(=O)[C@H](CCCCN)NC(=O)[C@H](CO)NC(=O)[C@H](CC(C)C)NC(=O)CNC(=O)[C@H](CCCCN)NC(=O)[C@H](CCCCN)NC(=O)[C@H](CC(N)=O)NC(=O)[C@H](C)NC(=O)CNC(=O)[C@H](CCCCN)NC(=O)[C@H](Cc2ccc(O)cc2)NC(=O)[C@H](CCCCN)NC(=O)[C@H](CCCNC(=N)N)NC(=O)[C@H](C)NC(=O)[C@H](CC(N)=O)NC(=O)[C@@H]2CCCN2C(=O)[C@H](Cc2c[nH]cn2)NC(=O)[C@H](CCC(=O)O)NC(=O)[C@H](CCC(N)=O)NC(=O)[C@@H](N)CC(C)C)CSSC[C@@H](C(=O)O)NC(=O)CNC(=O)[C@H](CC(C)C)NC(=O)CNC(=O)[C@H](CO)NC(=O)[C@H](CCSC)NC(=O)[C@H](CO)NC(=O)CNC1=O`, the Activity with Bone [1] is 12.2%; with Bone [2] it was 25%; in experiment [3], 2.7%; with Bone [4], 5.5%; in the experiment with Bone [5] it was 7.1%; in experiment [6] it was 9%. Moreover, the Activity came out at 4% with Bone [7] and 11.3% in the experiment with Bone [8].
Take `CCN1CCN(c2ccc(Nc3cc(N(C)C(=O)Nc4c(Cl)c(OC)cc(OC)c4Cl)ncn3)cc2)CC1` [INFIGRATINIB]: the Activity with Bone [9] worked out at 11%; in the experiment with Bone [10], 20.9%; in the experiment with Bone [11], 11.9%; in the experiment with Bone [12], 16%; with Bone [13] it was 26.5%; in the experiment on Bone [14], 22.3%. For the same compound, the Activity was determined as 11% in the experiment with Bone [15]; 20.9% in the experiment on Bone [16]; 12.1% in the experiment on Bone [17]; 16.8% with Bone [18]; 7% in the experiment on Bone [19]; 32.6% in the experiment with Bone [20].
Take VOSORITIDE: the Activity in the experiment with Bone [21] came out at 4.8%; in the experiment on Bone [22], 8%; in the experiment with Bone [23], 2.8%; in the experiment with Bone [24], 2.9%; in the experiment on Bone [25] it was 5.2%; in the experiment on Bone [26] it was 3.4%. The Activity in the experiment on Bone [27] turned out to be 6.6%; in the experiment on Bone [28] it was 3.3%; in the experiment with Bone [32], 3.7%. The result in the experiment on Bone [29], with Bone [30] and in the experiment on Bone [31] was inactive.
